{"source": "patent US20160128336A1", "about": "“MICROBIAL AGRICULTURE” (DSM IP ASSETS B.V., priority 2013, published 2016)", "test_system": "Colletotrichum gloeosporioides (CBS272.51)", "experiment": "Agar plug bio-assay on YME agar, fungal colony radius towards Streptomyces or natamycin plug", "format": "cell-based", "settings": "Table 7; 10 ppm natamycin in agar plug (5% w/w methanol), 7 days at 28° C.", "description": "Three fungal plant pathogens were tested against the selected S. natalensis strains: Fusarium oxysporum f.sp. lycopersici (CBS414.90), Colletotrichum gloeosporioides (CBS272.51) and Alternaria alternata (CBS103.33). Fusarium oxysporum f.sp. lycopersici is a soil borne fungus causing yield loss in e.g. tomato crops (Fusarium Wilt). Colletotrichum gloeosporioides causes e.g. anthracnose, a plant disease recognizable by dark brown lesions on leaves and fruits. Alternaria alternata is a worldwide occurring saprophyte that can cause phytopathogenic reactions in economically important host plants. The selected S. natalensis strains were tested against these fungal plant pathogens as described below.\nFrozen vials (glycerol stocks) or freeze dried tubes from the selected S. natalensis strains were transferred to 100 ml baffled Erlenmeyer flasks containing 20 ml of Yeast Malt Extract broth (YME). […]\nThe bio-assay was done as follows. […] After 7 days the radius of the fungal colony was measured in the direction of the opposite agar plug (Streptomyces sample). […] The inhibition zone (in percentage) was calculated by using the following formula: 100% * (r0-r1)/r0, wherein r0is the radius (in mm, corrected for the plug radius) of the fungal colony from the control sample and wherein r1 is the radius (in mm, corrected for the plug radius) of the fungal colony from the Streptomyces inhibited sample. […]", "data": [{"smiles": "C[C@@H]1C/C=C/C=C/C=C/C=C/[C@H](O[C@@H]2O[C@H](C)[C@@H](O)[C@H](N)[C@@H]2O)C[C@@H]2O[C@](O)(C[C@@H](O)C[C@H]3O[C@@H]3/C=C/C(=O)O1)C[C@H](O)[C@H]2C(=O)O", "note": "[Natamycin, natamycin]", "values": [{"measurement": "Average inhibition zone (in %)", "value": "not as high"}]}]}
